Usually IC50 stands for the concentration that inhibits the measured activity by half.

Molecules are shown by their SMILES. A value given as a limit tells only on which side of the number the result lay.

The record followed here is ChEMBL document CHEMBL1151505, “Imino 1,2,3,4-tetrahydrocyclopent[b]indole carbamates as dual inhibitors of acetylcholinesterase and monoamine oxidase” (Bioorg Med Chem Lett, 1996).

Assay [1] addresses T1, Amine oxidase [flavin-containing] B (Homo sapiens, UniProt P27338).
T1 sequence (P27338 whole entry): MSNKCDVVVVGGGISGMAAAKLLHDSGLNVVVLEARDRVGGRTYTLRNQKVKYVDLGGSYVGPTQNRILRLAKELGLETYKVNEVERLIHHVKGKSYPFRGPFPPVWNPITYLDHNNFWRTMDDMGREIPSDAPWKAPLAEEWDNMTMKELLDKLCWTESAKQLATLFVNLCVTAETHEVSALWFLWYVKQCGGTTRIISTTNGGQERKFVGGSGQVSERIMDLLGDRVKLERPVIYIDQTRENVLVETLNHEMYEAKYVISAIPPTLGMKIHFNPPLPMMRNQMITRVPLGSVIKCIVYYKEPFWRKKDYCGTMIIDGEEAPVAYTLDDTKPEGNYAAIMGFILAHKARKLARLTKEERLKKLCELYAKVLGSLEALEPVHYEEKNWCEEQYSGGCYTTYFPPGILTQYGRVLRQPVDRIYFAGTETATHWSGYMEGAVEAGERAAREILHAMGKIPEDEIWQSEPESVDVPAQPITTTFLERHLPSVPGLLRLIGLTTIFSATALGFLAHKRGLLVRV
Briefly: Compound was tested for inhibition of monoamine oxidase-B (MAO-B).

The target in assay [2] is T2, Amine oxidase [flavin-containing] A (Homo sapiens, UniProt P21397).
T2 sequence (P21397 whole entry): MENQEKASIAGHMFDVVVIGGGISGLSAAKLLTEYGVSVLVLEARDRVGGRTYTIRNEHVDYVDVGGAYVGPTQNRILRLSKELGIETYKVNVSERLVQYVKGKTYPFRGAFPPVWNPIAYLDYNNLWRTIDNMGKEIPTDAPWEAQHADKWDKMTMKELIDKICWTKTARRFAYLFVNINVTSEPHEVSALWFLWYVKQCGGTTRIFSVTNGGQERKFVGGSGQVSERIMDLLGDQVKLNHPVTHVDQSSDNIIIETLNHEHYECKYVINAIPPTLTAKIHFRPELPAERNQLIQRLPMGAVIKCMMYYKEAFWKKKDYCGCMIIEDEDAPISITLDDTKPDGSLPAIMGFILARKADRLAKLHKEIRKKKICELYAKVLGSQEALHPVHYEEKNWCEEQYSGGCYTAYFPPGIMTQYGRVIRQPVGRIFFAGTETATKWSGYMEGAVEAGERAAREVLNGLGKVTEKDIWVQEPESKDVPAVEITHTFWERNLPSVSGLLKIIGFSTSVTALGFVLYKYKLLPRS
Briefly: Compound was tested for inhibition of monoamine oxidase-A (MAO-A).

Another assay deals with Acetylcholinesterase (Homo sapiens, UniProt P22303). Briefly: Inhibition of acetylcholinesterase.
Sequence of Acetylcholinesterase (P22303 whole entry): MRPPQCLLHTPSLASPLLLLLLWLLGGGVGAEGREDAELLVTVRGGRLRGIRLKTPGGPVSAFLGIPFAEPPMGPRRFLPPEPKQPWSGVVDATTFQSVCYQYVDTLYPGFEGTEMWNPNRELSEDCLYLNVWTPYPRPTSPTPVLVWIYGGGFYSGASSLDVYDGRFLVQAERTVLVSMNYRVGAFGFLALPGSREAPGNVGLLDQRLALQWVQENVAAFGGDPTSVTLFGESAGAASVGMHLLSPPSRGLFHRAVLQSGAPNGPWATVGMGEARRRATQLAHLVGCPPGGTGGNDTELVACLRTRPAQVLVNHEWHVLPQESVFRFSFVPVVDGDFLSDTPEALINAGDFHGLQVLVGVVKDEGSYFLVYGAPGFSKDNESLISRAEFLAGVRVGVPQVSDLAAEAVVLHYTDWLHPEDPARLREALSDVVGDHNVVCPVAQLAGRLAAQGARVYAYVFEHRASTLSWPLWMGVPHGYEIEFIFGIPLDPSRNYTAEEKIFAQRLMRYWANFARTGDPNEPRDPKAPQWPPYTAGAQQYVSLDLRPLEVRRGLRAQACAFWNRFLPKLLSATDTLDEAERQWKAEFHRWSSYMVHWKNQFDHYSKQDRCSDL

For the compound `C/N=C1/CCc2c1n(C)c1ccccc21`, the figures for the IC50 in assay [1] and in assay [2] were 0.317 mM and 0.92 µM, respectively.
Take `CCC/N=C1/CCc2c1n(C)c1ccc(OC(=O)NC)cc21`: the IC50 in assay [1] is above 1 mM; against Acetylcholinesterase it was 3840 nM; in assay [2] it was 25.4 µM.
For `CC/N=C1/CCc2c1n(C)c1ccc(OC(=O)NC)c(Cl)c21`, in that order: above 1 mM, 160 nM and 0.1 µM.
As for `CC/N=C1/CCc2c1n(C)c1ccc(OC(=O)NC)cc21`, the IC50 in assay [1] is above 1 mM; on Acetylcholinesterase it was 5680 nM; in assay [2] it was 3.74 µM.
For `C/N=C1/CCc2c1n(C)c1ccc(OC(=O)NC)c(Cl)c21`, in that order: above 1 mM, 230 nM and 1.36 µM.
Turning to `CC(C)/N=C1/CCc2c1n(C)c1ccccc21`, the IC50 is above 1 mM in assay [1] and 30.8 µM in assay [2].
On the same counts, the results for `Cn1c2c(c3ccccc31)CC/C2=N/Cc1ccncc1` are above 1 mM and 113 µM.
Take `CNC(=O)Oc1ccc2c(c1)c1c(n2C)/C(=N\CCc2ccccc2)CC1`: the IC50 in assay [1] was above 1 mM; against Acetylcholinesterase, 160 nM; in assay [2], above 1000 µM.
For `CCCn1c2c(c3c(Br)c(OC(=O)NC)ccc31)CC/C2=N/CC`, in that order: above 1 mM, 230 nM and above 1000 µM.
On the same counts, the results for `C/N=C1/CCc2c1n(C)c1ccc(OC(=O)NC)cc21` are above 1 mM, 3360 nM and 13.6 µM.
